Laboratory results as given in US4450269A, “Mono-5-substituted-3-chloro-4H-1,2,6-thiadiazin-4-one antifungal agents” (FMC Corporation, priority 1980, dated 1984).
Counter-ions that a name gives are not always drawn. Like-named read-outs stand apart in the source and are kept apart here.

Key:
[1] = system: Alternaria solani; assay: Spore germination test; format: cell-based; details: AS, 48 hours
Method in brief: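 Compound in acetone was mixed into water agar at final 40, 10, 2.5 and 1 ppm and poured into quadrant dishes. Quadrants received spore suspension, while Erysiphe polygoni and Uromyces phaseoli spores were brushed on from infected leaves. After 48 h at 24 °C, the percentage of germinated spores was converted to a germination rating.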

[2] = system: Sclerotinia fructicola; assay: Mycelial growth test; format: cell-based; details: SF; for inhibition at 5 ppm / inhibition at 10 ppm / inhibition at 20 ppm / inhibition at 40 ppm: Sclerotinia, 72 h, read-out: Percent Fungus Growth Inhibition; for Percent Fungus Growth Inhibition: 72 hours
Description: | SF = Sclerotinia fructicola

[3] = system: Uromyces phaseoli; assay: whole plant or invertebrate; details: foliar, read-out: Percent Disease Control, foliar, bean rust
[4] = system: Uromyces phaseoli; assay: whole plant or invertebrate; details: foliar, 24 h, read-out: Percent Disease Control, curative, bean rust

| Molecule | Spore Germination Rating ([1]; 1.0 ppm) | Spore Germination Rating ([1]; 2.5 ppm) | Spore Germination Rating ([1]; 10 ppm) | Spore Germination Rating ([1]; 40 ppm) | inhibition at 5 ppm ([2]; 5 ppm) | inhibition at 10 ppm ([2]; 10 ppm) | inhibition at 20 ppm ([2]; 20 ppm) | inhibition at 40 ppm ([2]; 40 ppm) | pest or weed control at 150 ppm [3] | pest or weed control at 150 ppm [4] | Percent Fungus Growth Inhibition ([2]; 5 ppm) | Percent Fungus Growth Inhibition ([2]; 10 ppm) | Percent Fungus Growth Inhibition ([2]; 20 ppm) | Percent Fungus Growth Inhibition ([2]; 40 ppm) | Spore Germination Rating ([1]; 2.5 ppm, hydrochloride) | Spore Germination Rating ([1]; 10 ppm, hydrochloride) | Percent Fungus Growth Inhibition ([2]; 5 ppm, hydrochloride) | Percent Fungus Growth Inhibition ([2]; 10 ppm, hydrochloride) | Percent Fungus Growth Inhibition ([2]; 20 ppm, hydrochloride) | Percent Fungus Growth Inhibition ([2]; 40 ppm, hydrochloride) |
| --- | --- | --- | --- | --- | --- | --- | --- | --- | --- | --- | --- | --- | --- | --- | --- | --- | --- | --- | --- | --- |
| O=c1c(Cl)nsnc1Oc1ccc([N+](=O)[O-])cc1 [Compound 9, 3-chloro-5-(4-nitrophenoxy)-4H--1,2,6-thiadiazin-4-one] | 0 (0-10) | 0 (0-10) | 0 (0-10) | 0 (0-10) | 58% | 76% | 100% | 100% | 98% | 0% | – | – | – | – | – | – | – | – | – | – |
| Cc1cc(Cl)ccc1Oc1nsnc(Cl)c1=O [Compound 55, 3-chloro-5-(4-chloro-2-methylphenoxy)-4H--1,2,6-thiadiazin-4-one] | 4 (80-100) | 2 (40-60) | 1 (10-40) | 0 (0-10) | 42% | 50% | 56% | 61% | 100% | 0% | – | – | – | – | – | – | – | – | – | – |
| O=c1c(Cl)nsnc1Oc1cccc2ccccc12 [Compound 32, 3-chloro-5(1-naphthoxy)-4H-1,2,6-thiadiazin-4-one] | 3 (60-80) | 1 (10-40) | 0 (0-10) | 0 (0-10) | 74% | 79% | 76% | 100% | 90% | 0% | – | – | – | – | – | – | – | – | – | – |
| Cc1cc(C)cc(Oc2nsnc(Cl)c2=O)c1 [Compound 25, 3-chloro-5-(3,5-dimethylphenoxy)-4H--1,2,6-thiadiazin-4-one] | 4 (80-100) | 2 (40-60) | 0 (0-10) | 0 (0-10) | 82% | 100% | 100% | 100% | 100% | 0% | – | – | – | – | – | – | – | – | – | – |
| O=c1c(Cl)nsnc1Oc1cccc(Cl)c1 [Compound 13, 3-chloro-5-(3-chlorophenoxy)-4H--1,2,6-thiadiazin-4-one] | 2 (40-60) | 0 (0-10) | 0 (0-10) | 0 (0-10) | 51% | 67% | 100% | 100% | 100% | 90% | – | – | – | – | – | – | – | – | – | – |
| O=C(O)Cc1ccccc1Oc1nsnc(Cl)c1=O [Compound 45, 3-(2-carboxymethylphenoxy)-5-chloro-4H--1,2,6-thiadiazin-4-one] | 4 (80-100) | 4 (80-100) | 4 (80-100) | 2 (40-60) | 9% | 3% | 38% | 59% | 95% | 0% | – | – | – | – | – | – | – | – | – | – |
| CSc1ccc(Oc2nsnc(Cl)c2=O)cc1 [Compound 39, 3-chloro-5-[(4-methylthio)phenoxy]-4H-1,2,6,-thiadiazin-4-one] | 4 (80-100) | 3 (60-80) | 2 (40-60) | 0 (0-10) | 41% | 48% | 63% | 85% | 98% | 0% | – | – | – | – | – | – | – | – | – | – |
| O=c1c(Cl)nsnc1Oc1ccc(F)cc1 [Compound 11, 3-chloro-5-(4-fluorophenoxy)-4H--1,2,6-thiadiazin-4-one] | 4 (80-100) | 0 (0-10) | 0 (0-10) | 0 (0-10) | 100% | 100% | 100% | 100% | 0% | 0% | – | – | – | – | – | – | – | – | – | – |
| Cc1cc(Oc2nsnc(Cl)c2=O)ccc1Cl [Compound 54, 3-chloro-5-(4-chloro-3-methylphenoxy)-4H--1,2,6-thiadiazin-4-one] | 4 (80-100) | 4 (80-100) | 4 (80-100) | 4 (80-100) | 49% | 50% | 53% | 64% | 100% | 0% | – | – | – | – | – | – | – | – | – | – |
| 3-chloro-5-(bromophenoxy)-4H-1,2,6-thiadiazin-4-one [Compound 33] | 1 (10-40) | 0 (0-10) | 0 (0-10) | 0 (0-10) | – | – | – | – | – | – | 44% | 61% | 94% | 100% | – | – | – | – | – | – |
| COc1cc(Oc2nsnc(Cl)c2=O)cc(OC)c1C(C)=O [Compound 61, 3-[(4-acetyl-3,5-dimethoxy)-phenoxy]-5-chloro-4H--1,2,6-thiadiazin-4-one] | 4 (80-100) | 3 (60-80) | 2 (40-60) | 2 (40-60) | 7% | 19% | 59% | 85% | 100% | 0% | – | – | – | – | – | – | – | – | – | – |
| Cc1ccccc1Oc1nsnc(Cl)c1=O [Compound 22, 3-chloro-5-(2-methylphenoxy)-4H--1,2,6-thiadiazin-4-one] | 3 (60-80) | 0 (0-10) | 0 (0-10) | 0 (0-10) | 24% | 100% | 100% | 100% | 100% | 0% | – | – | – | – | – | – | – | – | – | – |
| O=c1c(Cl)nsnc1Oc1cc(Cl)cc(Cl)c1 [Compound 20, 3-chloro-5-(3,5-dichlorophenoxy)-4H--1,2,6-thiadiazin-4-one] | 2 (40-60) | 0 (0-10) | 0 (0-10) | 0 (0-10) | 60% | 73% | 84% | 87% | 100% | 0% | – | – | – | – | – | – | – | – | – | – |
| O=c1c(Cl)nsnc1Oc1ccccc1Cl [Compound 14, 3-chloro-5-(2-chlorophenoxy)-4H--1,2,6-thiadiazin-4-one] | 3 (60-80) | 2 (40-60) | 0 (0-10) | 0 (0-10) | 47% | 64% | 87% | 100% | 0% | 100% | – | – | – | – | – | – | – | – | – | – |
| Nc1ccc(Oc2nsnc(Cl)c2=O)cc1 [Compound 27, 5-(4-aminophenoxy)-3-chloro-4H--1,2,6-thiadiazine-4-one hydrochloride] | – | – | – | – | – | – | – | – | – | – | – | – | – | – | 4 (80-100) | 3 (60-80) | 0% | 21% | 28% | 86% |
| O=c1c(Cl)nsnc1Oc1ccccc1 [Compound 2, 3-chloro-5-phenoxy-4H--1,2,6-thiadiazin-4-one] | 4 (80-100) | 0 (0-10) | 0 (0-10) | 0 (0-10) | 52% | 67% | 100% | 100% | 100% | 0% | – | – | – | – | – | – | – | – | – | – |
| Cc1cc(Cl)c(Oc2nsnc(Cl)c2=O)cc1C [Compound 58, 3-chloro-5-[(2-chloro-4,5-dimethyl)phenoxy]-4H--1,2,6-thiadiazin-4-one] | 4 (80-100) | 3 (60-80) | 0 (0-10) | 0 (0-10) | 56% | 65% | 68% | 71% | 100% | 0% | – | – | – | – | – | – | – | – | – | – |
| CC(=O)Nc1cccc(Oc2nsnc(Cl)c2=O)c1 [Compound 42, 3-[(3-N--acetylamino)-phenoxy]-5-chloro-4H--1,2,6-thiadiazin-4-one] | 4 (80-100) | 4 (80-100) | 4 (80-100) | 2 (40-60) | 24% | 35% | 56% | 100% | 100% | 0% | – | – | – | – | – | – | – | – | – | – |
| O=c1c(Cl)nsnc1Oc1ccccc1Br [Compound 34, 3-chloro-5-(2-bromophenoxy)-4H-1,2,6,-thiadiazin-4-one] | 4 (80-100) | 1 (10-40) | 0 (0-10) | 0 (0-10) | 33% | 72% | 100% | 100% | 85% | 0% | – | – | – | – | – | – | – | – | – | – |
| C[S+]([O-])c1ccc(Oc2nsnc(Cl)c2=O)cc1 (stereo not drawn) [Compound 40, 3-chloro-5-[(4-methylsulfinyl)phenoxy]-4H-1,2,6,-thiadiazin-4-one] | 4 (80-100) | 2 (40-60) | 1 (10-40) | 0 (0-10) | 4% | 59% | 89% | 100% | 98% | 0% | – | – | – | – | – | – | – | – | – | – |
| O=c1c(Cl)nsnc1Oc1cccc(Cl)c1Cl [Compound 19, 3-chloro-5-(2,3-dichlorophenoxy)-4H--1,2,6-thiadiazin-4-one] | 3 (60-80) | 3 (60-80) | 0 (0-10) | 0 (0-10) | 64% | 76% | 100% | 100% | 0% | 100% | – | – | – | – | – | – | – | – | – | – |
